Results: patent publication US11174216B2, “Lipids that increase insulin sensitivity and methods of using the same” (Beth Israel Deaconess Medical Center, Inc., priority 2012, dated 2021)

Legend:
Human islets = assay: Insulin release from primary human islet cells; type: cell-based; settings: 45 min
Procedure: Two human donors provided cells used in these studies. Donor 1 was a person, 5′0″, 157 lbs, with a BMI of 30.5, HbA1C was 5.8, who died from a stroke, but it was witnessed and they had no downtime. Islets were 80% pure and 95% viable. After arrival, islets were incubated overnight in human islet media before stimulation with glucose in presence and absence of 5-PAHSA (lipid A-5). Note 1 IU of Human Insulin=6 nmol=34.8 μg Insulin.
Human islets were divided into ten groups [100 islets per condition]
A] Low glucose [2.5 mM]; B] High glucose [20.0 mM]; C] Low glucose [2.5 mM]+2.5 μL/mL Methanol; D] High glucose [20.0 mM]+2.5 μL/mL Methanol; E] Low glucose+20 μM Lipid A-5; F] High glucose+20 μM Lipid A-5; G] Low glucose+50 μM Lipid A-5; H] High glucose+50 μM Lipid A-5.
Islets were cultured overnight in Human Islet media and next day incubated with KRB buffer for 4 h prior to glucose stimulation.
Following KRB incubation, islets were stimulated with glucose [2.5 mM & 20.0 mM] in the presence and absence of Lipid A-5 [20 & 50 μM] for 45 min
At the end of glucose stimulation the amount of insulin released [μ IU/mL] into the media was measured using Human Insulin ELISA kit. And the insulin content from the islets were extracted to express insulin released into the media as μ IU/mL/islet content. […]

purified CEL = target: T1, purified CEL (Homo sapiens, UniProt P19835); assay: Hydrolysis of 9-PAHSA by purified CEL; type: biochemical; settings: micellar concentrations of NaTC
T1 construct: purchased R&D Systems
T1 sequence (P19835 21-753): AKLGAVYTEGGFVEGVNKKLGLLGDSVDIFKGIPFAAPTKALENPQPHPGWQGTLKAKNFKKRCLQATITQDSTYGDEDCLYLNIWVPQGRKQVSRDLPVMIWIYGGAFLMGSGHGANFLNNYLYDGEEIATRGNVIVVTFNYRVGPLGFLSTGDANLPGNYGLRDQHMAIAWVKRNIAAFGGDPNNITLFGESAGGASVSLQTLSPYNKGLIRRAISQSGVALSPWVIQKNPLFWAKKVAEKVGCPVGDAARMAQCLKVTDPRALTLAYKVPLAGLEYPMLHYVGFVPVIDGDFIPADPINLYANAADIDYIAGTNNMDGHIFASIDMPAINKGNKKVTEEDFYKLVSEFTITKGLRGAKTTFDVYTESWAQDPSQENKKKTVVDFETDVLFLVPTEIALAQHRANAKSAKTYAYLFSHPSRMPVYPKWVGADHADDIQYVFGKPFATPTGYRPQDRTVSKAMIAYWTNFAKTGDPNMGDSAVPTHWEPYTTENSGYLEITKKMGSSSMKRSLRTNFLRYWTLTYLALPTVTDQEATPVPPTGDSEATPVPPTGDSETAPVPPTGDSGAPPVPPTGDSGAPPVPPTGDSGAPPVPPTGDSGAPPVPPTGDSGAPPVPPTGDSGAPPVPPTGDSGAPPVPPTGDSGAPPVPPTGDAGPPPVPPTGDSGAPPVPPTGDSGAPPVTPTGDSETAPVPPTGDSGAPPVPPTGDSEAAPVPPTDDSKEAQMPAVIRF
Source text: To confirm the identification of CEL as a FAHFA hydrolase, a small amount of purified enzyme (available commercially from R&D Systems) was used.

[1] = tested on: carboxyl ester lipase (CEL)
[2] = tested on: FAHFA hydrolysis activity in pancreas membrane lysate; assay: FAHFA hydrolysis activity assay, pancreas membrane lysate; settings: 1 mg/ml protein, 100 uM 9-PAHSA, 30 min, room temperature

Compound | Glucose Stimulated Insulin Secretion (Human islets; human islets from Donor 1, 20 and 50 uM) | Glucose Stimulated Insulin Secretion (Human islets; human islets from Donor 2, 20 uM) | hydrolysis, measured by 9-HSA production (purified CEL) | hydrolysis by HEK293T lysates transfected with CEL, AADACL1 or CES3 [1] | FAHFA hydrolysis activity, pancreas membrane versus liver membrane [2] [fold]
CCCCCCCCCCCCCCCC(=O)OC(CCCCCCCCCCCCC)CCCC(=O)O (centres unmarked) [5-PAHSA] | induces Glucose Stimulated Insulin Secretion | induces Glucose Stimulated Insulin Secretion | – | – | –
CCCCCCCCCCCCCCCC(=O)OC(CCCCCCCCC)CCCCCCCC(=O)O (centres unmarked) [9-PAHSA, palmitoyl-9-hydroxystearic acid] | – | – | substantial hydrolysis | only CEL-transfected cell lysate was able to hydrolyze FAHFA above the level of background hydrolysis activity | ~10
